System: KRAS patient-derived spheroids with HUVEC/MSC, viability
Test: Anticancer human tumor 519858-162-T-J1-PDC patient-derived colon adenocarcinoma cell line growth inhibition [KRAS2]
Settings: for IC50: curve of first compound; for viability, T/C: stronger effect = lower value
Method in brief: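 KRAS-mutant tumor cells were grown as spheroids with HUVEC endothelial cells and human MSCs as stroma. Targeted agents were tested alone and with KRAS pathway inhibitors. Doses started at or near clinical Cmax, or 10 microM, descending half-log.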

[1] = second compound 0.1 µM, first compound 0.0316 µM
[2] = second compound 0.1 µM, first compound 0.1 µM
[3] = second compound 0.1 µM, first compound 0.316 µM
[4] = second compound 0.1 µM, first compound 1 µM
[5] = second compound 0.1 µM, first compound 3.16 µM
[6] = second compound 0.1 µM, first compound 10 µM
[7] = second compound 0.316 µM, first compound 0.0316 µM
[8] = second compound 0.316 µM, first compound 0.1 µM
[9] = second compound 0.316 µM, first compound 0.316 µM
[10] = second compound 0.316 µM, first compound 1 µM
[11] = second compound 0.316 µM, first compound 3.16 µM
[12] = second compound 0.316 µM, first compound 10 µM
[13] = second compound 1 µM, first compound 0.0316 µM
[14] = second compound 1 µM, first compound 0.1 µM
[15] = second compound 1 µM, first compound 0.316 µM
[16] = second compound 1 µM, first compound 1 µM
[17] = second compound 1 µM, first compound 3.16 µM
[18] = second compound 1 µM, first compound 10 µM
[19] = second compound 3.16 µM, first compound 0.0316 µM
[20] = second compound 3.16 µM, first compound 0.1 µM
[21] = second compound 3.16 µM, first compound 0.316 µM
[22] = second compound 3.16 µM, first compound 1 µM
[23] = second compound 3.16 µM, first compound 3.16 µM
[24] = second compound 3.16 µM, first compound 10 µM
[25] = second compound 10 µM, first compound 0.0316 µM
[26] = second compound 10 µM, first compound 0.1 µM
[27] = second compound 10 µM, first compound 0.316 µM
[28] = second compound 10 µM, first compound 1 µM
[29] = second compound 10 µM, first compound 3.16 µM
[30] = second compound 10 µM, first compound 10 µM
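Note: compound exposure lasted seven days before readout.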
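Throughout, for viability, T/C: 100% = DMSO vehicle control viability.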

CC1(C)CCC(CN2CCN(c3ccc(C(=O)NS(=O)(=O)c4ccc(NCC5CCOCC5)c([N+](=O)[O-])c4)c(Oc4cnc5[nH]ccc5c4)c3)CC2)=C(c2ccc(Cl)cc2)C1 + CC1OCC2(CCN(c3cnc(Sc4ccnc(N)c4Cl)c(N)n3)CC2)C1N
IC50 (second compound 0.1 µM): > 10 µM
IC50 (second compound 0.316 µM): > 10 µM
IC50 (second compound 1 µM): 4.32 µM
IC50 (second compound 3.16 µM): 2.98 µM
IC50 (second compound 10 µM): 3.65 µM
viability, T/C [1]: 81.4%
viability, T/C [2]: 93.4%
viability, T/C [3]: 91.2%
viability, T/C [4]: 82.3%
viability, T/C [5]: 72.6%
viability, T/C [6]: 78.2%
viability, T/C [7]: 72.6%
viability, T/C [8]: 71.3%
viability, T/C [9]: 89.1%
viability, T/C [10]: 69.5%
viability, T/C [11]: 67.8%
viability, T/C [12]: 57.4%
viability, T/C [13]: 65.7%
viability, T/C [14]: 74.5%
viability, T/C [15]: 42.8%
viability, T/C [16]: 58.7%
viability, T/C [17]: 59.9%
viability, T/C [18]: 23.5%
viability, T/C [19]: 48.8%
viability, T/C [20]: 58.4%
viability, T/C [21]: 61.7%
viability, T/C [22]: 62.8%
viability, T/C [23]: 60.2%
viability, T/C [24]: 29.9%
viability, T/C [25]: 89.7%
viability, T/C [26]: 66.9%
viability, T/C [27]: 74.8%
viability, T/C [28]: 61.6%
viability, T/C [29]: 60.6%
viability, T/C [30]: 23.5%

O=C(c1cc(Cc2n[nH]c(=O)c3ccccc23)ccc1F)N1CCN(C(=O)C2CC2)CC1 + CNCc1ccccc1-c1csc(C(C)Nc2nc(C)nc3cc(OC)c(OC)cc23)c1
IC50 (second compound 0.1 µM): > 10 µM
IC50 (second compound 0.316 µM): > 10 µM
IC50 (second compound 1 µM): > 10 µM
IC50 (second compound 3.16 µM): > 10 µM
IC50 (second compound 10 µM): < 0.0316 µM
viability, T/C [1]: 78.8%
viability, T/C [2]: 93.4%
viability, T/C [3]: 86.4%
viability, T/C [4]: 82.6%
viability, T/C [5]: 78.9%
viability, T/C [6]: 115%
viability, T/C [7]: 105%
viability, T/C [8]: 105%
viability, T/C [9]: 97.8%
viability, T/C [10]: 75.8%
viability, T/C [11]: 70.9%
viability, T/C [12]: 82.4%
viability, T/C [13]: 132%
viability, T/C [14]: 92.3%
viability, T/C [15]: 77%
viability, T/C [16]: 127%
viability, T/C [17]: 91.8%
viability, T/C [18]: 115%
viability, T/C [19]: 60.3%
viability, T/C [20]: 52.2%
viability, T/C [21]: 59.5%
viability, T/C [22]: 70.5%
viability, T/C [23]: 76.8%
viability, T/C [24]: 64.6%
viability, T/C [25]: 0.49%
viability, T/C [26]: 0.38%
viability, T/C [27]: 0.54%
viability, T/C [28]: 0.33%
viability, T/C [29]: 0.44%
viability, T/C [30]: 0.38%

Cn1ncnc1[C@H]1c2n[nH]c(=O)c3cc(F)cc(c23)N[C@@H]1c1ccc(F)cc1 + C=CC(=O)N1CCN(c2nc(OCC3CCCN3C)nc3c2CCN(c2cccc4cccc(C)c24)C3)CC1CC#N
IC50 (second compound 0.0316 µM): > 0.1 µM
IC50 (second compound 0.1 µM): > 0.1 µM
IC50 (second compound 0.316 µM): > 0.1 µM
IC50 (second compound 1 µM): > 0.1 µM
IC50 (second compound 3.16 µM): > 0.1 µM
viability, T/C (second compound 0.0316 µM, first compound 0.000316 µM): 84.3%
viability, T/C (second compound 0.0316 µM, first compound 0.001 µM): 88.4%
viability, T/C (second compound 0.0316 µM, first compound 0.00316 µM): 75.1%
viability, T/C (second compound 0.0316 µM, first compound 0.01 µM): 89.1%
viability, T/C (second compound 0.0316 µM, first compound 0.0316 µM): 68.9%
viability, T/C (second compound 0.0316 µM, first compound 0.1 µM): 65.5%
viability, T/C (second compound 0.1 µM, first compound 0.000316 µM): 62.2%
viability, T/C (second compound 0.1 µM, first compound 0.001 µM): 74.2%
viability, T/C (second compound 0.1 µM, first compound 0.00316 µM): 76.6%
viability, T/C (second compound 0.1 µM, first compound 0.01 µM): 70.2%
viability, T/C [1]: 85.9%
viability, T/C [2]: 91.7%
viability, T/C (second compound 0.316 µM, first compound 0.000316 µM): 66%
viability, T/C (second compound 0.316 µM, first compound 0.001 µM): 73.8%
viability, T/C (second compound 0.316 µM, first compound 0.00316 µM): 74.1%
viability, T/C (second compound 0.316 µM, first compound 0.01 µM): 66.3%
viability, T/C [7]: 78.5%
viability, T/C [8]: 76.3%
viability, T/C (second compound 1 µM, first compound 0.000316 µM): 61.3%
viability, T/C (second compound 1 µM, first compound 0.001 µM): 75.8%
viability, T/C (second compound 1 µM, first compound 0.00316 µM): 59.6%
viability, T/C (second compound 1 µM, first compound 0.01 µM): 72.3%
viability, T/C [13]: 84.2%
viability, T/C [14]: 72.3%
viability, T/C (second compound 3.16 µM, first compound 0.000316 µM): 71.7%
viability, T/C (second compound 3.16 µM, first compound 0.001 µM): 67.4%
viability, T/C (second compound 3.16 µM, first compound 0.00316 µM): 62.3%
viability, T/C (second compound 3.16 µM, first compound 0.01 µM): 62.3%
viability, T/C [19]: 59.2%
viability, T/C [20]: 58.9%

COc1cc(Nc2ncc3c(n2)-c2ccc(Cl)cc2C(c2c(F)cccc2OC)=NC3)ccc1C(=O)O + CNCc1ccccc1-c1csc(C(C)Nc2nc(C)nc3cc(OC)c(OC)cc23)c1
IC50 (second compound 0.1 µM): > 10 µM
IC50 (second compound 0.316 µM): > 10 µM
IC50 (second compound 1 µM): > 10 µM
IC50 (second compound 3.16 µM): > 10 µM
IC50 (second compound 10 µM): < 0.0316 µM
viability, T/C [1]: 95.9%
viability, T/C [2]: 93.5%
viability, T/C [3]: 79.1%
viability, T/C [4]: 85%
viability, T/C [5]: 88.4%
viability, T/C [6]: 103%
viability, T/C [7]: 96.5%
viability, T/C [8]: 91.5%
viability, T/C [9]: 56.2%
viability, T/C [10]: 78.6%
viability, T/C [11]: 87.6%
viability, T/C [12]: 71.2%
viability, T/C [13]: 77.2%
viability, T/C [14]: 78.2%
viability, T/C [15]: 73%
viability, T/C [16]: 70%
viability, T/C [17]: 71.2%
viability, T/C [18]: 62.1%
viability, T/C [19]: 58.2%
viability, T/C [20]: 54.6%
viability, T/C [21]: 60.9%
viability, T/C [22]: 65.6%
viability, T/C [23]: 74.2%
viability, T/C [24]: 67.4%
viability, T/C [25]: 0.42%
viability, T/C [26]: 0.37%
viability, T/C [27]: 0.36%
viability, T/C [28]: 0.31%
viability, T/C [29]: 0.37%
viability, T/C [30]: 0.84%

Source: PubChem BioAssay AID1963872 (Molecular Pharmacology Branch, DTP, NCI, 2024)
